Calls of active or inactive are those of the source. The calls are words filed in the database; no cut-off is given here.
How the values were obtained:
[1] = Inhibition of LPS-indued NF-kappaB activation in mouse RAW264.7 cells preincubated for 30 mins followed by LPS stimulation and measured after 10 hrs by luciferase assay; type: cell-based
[2] = tested on: RAW264.7; assay: Antiinflammatory activity in mouse RAW264.7 assessed as inhibition of LPS-induced NO production preincubated for 30 mins followed by LPS stimulation measured after 24 hrs by Griess reagent based assay; type: functional, cell-based
[3] = tested on: RAW264.7; assay: Inhibition of MAPK in mouse RAW264.7 cells assessed as inhibition of LPS-induced ERK phosphorylation at 30 uM preincubated for 30 mins followed by LPS stimulation by Western blotting analysis; type: cell-based
[4] = tested on: RAW264.7; assay: Antiinflammatory activity in mouse RAW264.7 cells assessed as inhibition of LPS-induced iNOS protein expression at 30 uM preincubated for 30 mins followed by LPS stimulation by Western blot analysis; type: functional, cell-based
[5] = tested on: RAW264.7; assay: Antiinflammatory activity in mouse RAW264.7 cells assessed as inhibition of LPS-induced COX-2 mRNA expression at 30 uM preincubated for 30 mins followed by LPS stimulation by RT-PCR analysis; type: functional, cell-based
[6] = biological target: T1, Inhibitor of nuclear factor kappa-B kinase subunit beta (Mus musculus) (UniProt O88351); assay: Inhibition of IKKbeta mediated NF-kappaB activation in mouse RAW264.7 cells assessed as inhibition of TWEAK-induced p65 phosphorylation on serine 536 by Western blotting analysis; type: cell-based
T1 sequence (whole entry): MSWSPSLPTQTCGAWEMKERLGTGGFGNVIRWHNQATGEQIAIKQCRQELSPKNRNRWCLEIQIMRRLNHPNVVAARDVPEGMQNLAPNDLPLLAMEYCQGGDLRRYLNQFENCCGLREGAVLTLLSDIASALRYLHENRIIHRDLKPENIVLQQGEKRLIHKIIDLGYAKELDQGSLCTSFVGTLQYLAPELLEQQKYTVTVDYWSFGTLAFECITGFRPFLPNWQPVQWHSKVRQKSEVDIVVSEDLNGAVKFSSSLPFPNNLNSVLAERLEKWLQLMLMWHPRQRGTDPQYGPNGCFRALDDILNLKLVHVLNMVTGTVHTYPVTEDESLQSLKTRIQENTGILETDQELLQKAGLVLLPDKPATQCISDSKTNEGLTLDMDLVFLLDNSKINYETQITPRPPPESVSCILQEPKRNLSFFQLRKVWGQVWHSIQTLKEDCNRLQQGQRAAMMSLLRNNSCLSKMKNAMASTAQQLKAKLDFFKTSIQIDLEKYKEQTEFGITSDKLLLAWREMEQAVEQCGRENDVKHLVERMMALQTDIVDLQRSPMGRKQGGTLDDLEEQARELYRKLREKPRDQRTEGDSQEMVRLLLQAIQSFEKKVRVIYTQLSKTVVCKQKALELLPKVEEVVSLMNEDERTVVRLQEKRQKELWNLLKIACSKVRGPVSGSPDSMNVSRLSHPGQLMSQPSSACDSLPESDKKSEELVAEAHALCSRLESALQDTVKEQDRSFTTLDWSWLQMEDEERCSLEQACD

[7] = biological target: T2, Inhibitor of nuclear factor kappa-B kinase subunit alpha (Mus musculus) (UniProt Q60680); assay: Inhibition of IKKalpha mediated NF-kappaB activation in mouse RAW264.7 cells assessed as TWEAK-induced degradation of TRAF3 by Western blotting analysis; type: cell-based
T2 sequence (whole entry): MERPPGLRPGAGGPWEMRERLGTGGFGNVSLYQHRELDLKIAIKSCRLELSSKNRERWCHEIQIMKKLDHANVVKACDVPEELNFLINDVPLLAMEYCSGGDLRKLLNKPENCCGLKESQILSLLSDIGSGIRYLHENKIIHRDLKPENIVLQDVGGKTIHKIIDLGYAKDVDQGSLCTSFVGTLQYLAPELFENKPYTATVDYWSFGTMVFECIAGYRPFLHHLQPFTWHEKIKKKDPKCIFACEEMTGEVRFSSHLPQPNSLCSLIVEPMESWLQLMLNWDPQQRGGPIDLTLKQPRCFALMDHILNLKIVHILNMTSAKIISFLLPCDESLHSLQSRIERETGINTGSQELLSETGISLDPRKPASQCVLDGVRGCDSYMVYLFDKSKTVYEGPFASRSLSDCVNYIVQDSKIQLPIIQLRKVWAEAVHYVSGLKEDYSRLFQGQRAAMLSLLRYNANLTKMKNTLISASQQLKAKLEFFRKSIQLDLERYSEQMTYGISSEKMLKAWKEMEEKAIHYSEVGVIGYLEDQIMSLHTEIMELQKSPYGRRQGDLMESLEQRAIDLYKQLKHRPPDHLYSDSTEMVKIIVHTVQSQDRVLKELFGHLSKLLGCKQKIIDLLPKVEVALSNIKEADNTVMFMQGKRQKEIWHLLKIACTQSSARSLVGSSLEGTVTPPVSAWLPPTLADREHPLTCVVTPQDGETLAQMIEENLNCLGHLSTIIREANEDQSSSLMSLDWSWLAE

[8] = tested on: RAW264.7; assay: Inhibition of NF-kappaB activation in mouse RAW264.7 cells assessed as inhibition of LPS-induced IkappaBalpha phosphorylation at 30 uM preincubated for 30 mins followed by LPS stimulation by Western blotting analysis; type: cell-based
[9] = tested on: RAW264.7; assay: Antiinflammatory activity in mouse RAW264.7 cells assessed as inhibition of LPS-induced COX-2 protein expression at 30 uM preincubated for 30 mins followed by LPS stimulation by Western blot analysis; type: functional, cell-based
[10] = tested on: RAW264.7; assay: Inhibition of MAPK in mouse RAW264.7 cells assessed as inhibition of LPS-induced JNK phosphorylation at 30 uM preincubated for 30 mins followed by LPS stimulation by Western blotting analysis; type: cell-based
[11] = tested on: RAW264.7; assay: Antiinflammatory activity in mouse RAW264.7 cells assessed as inhibition of LPS-induced IL-1beta protein expression at 30 uM preincubated for 30 mins followed by LPS stimulation by Western blot analysis; type: functional, cell-based
[12] = biological target: T2, Inhibitor of nuclear factor kappa-B kinase subunit alpha (Mus musculus); assay: Inhibition of IKKalpha mediated NF-kappaB activation in mouse RAW264.7 cells assessed as reduction in LIGHT-induced processing of p100 to p52 by Western blotting analysis; type: cell-based
[13] = tested on: RAW264.7; assay: Antiinflammatory activity in mouse RAW264.7 cells assessed as inhibition of LPS-induced IL-1beta mRNA expression at 30 uM preincubated for 30 mins followed by LPS stimulation by RT-PCR analysis; type: functional, cell-based
[14] = tested on: RAW264.7; assay: Inhibition of NF-kappaB activation in mouse RAW264.7 cells assessed as inhibition of LPS-induced relA phosphorylation at 30 uM preincubated for 30 mins followed by LPS stimulation by Western blotting analysis; type: cell-based
[15] = tested on: RAW264.7; assay: Antiinflammatory activity in mouse RAW264.7 cells assessed as inhibition of LPS-induced TNFalpha mRNA expression at 30 uM preincubated for 30 mins followed by LPS stimulation by RT-PCR analysis; type: functional, cell-based
[16] = tested on: RAW264.7; assay: Antiinflammatory activity in mouse RAW264.7 cells assessed as inhibition of LPS-induced IL6 mRNA expression at 30 uM preincubated for 30 mins followed by LPS stimulation by RT-PCR analysis; type: functional, cell-based
[17] = biological target: T2, Inhibitor of nuclear factor kappa-B kinase subunit alpha (Mus musculus); assay: Inhibition of IKKalpha mediated NF-kappaB activation in mouse RAW264.7 cells assessed as reduction TWEAK-induced processing of p100 to p52 by Western blotting analysis; type: cell-based
[18] = tested on: RAW264.7; assay: Inhibition of MAPK in mouse RAW264.7 cells assessed as inhibition of LPS-induced p38 phosphorylation at 30 uM preincubated for 30 mins followed by LPS stimulation by Western blotting analysis; type: cell-based
[19] = tested on: HEK293; assay: Inhibition of IKK phosphorylation in HEK293 cells transfected with IKKbeta by Western blotting analysis; type: cell-based; conditions: Homo sapiens
[20] = tested on: RAW264.7; assay: Inhibition of NF-kappaB activation in mouse RAW264.7 cells assessed as inhibition of LPS-induced IKKbeta phosphorylation at 30 uM preincubated for 30 mins followed by LPS stimulation by Western blotting analysis; type: cell-based
[21] = biological target: T2, Inhibitor of nuclear factor kappa-B kinase subunit alpha (Mus musculus); assay: Inhibition of IKKalpha mediated NF-kappaB activation in mouse RAW264.7 cells assessed as TWEAK-induced degradation of TRAF2 by Western blotting analysis; type: cell-based
[22] = tested on: RAW264.7; assay: Antiinflammatory activity in mouse RAW264.7 cells assessed as inhibition of LPS-induced iNOS mRNA expression at 30 uM preincubated for 30 mins followed by LPS stimulation by RT-PCR analysis; type: functional, cell-based
[23] = tested on: RAW264.7; assay: Inhibition of NF-kappaB activation in mouse RAW264.7 cells assessed as inhibition of LPS-induced IKKalpha phosphorylation at 30 uM preincubated for 30 mins followed by LPS stimulation by Western blotting analysis; type: cell-based

NC(=O)Nc1sc(-c2ccc(F)cc2)cc1C(N)=O
IC50 [1]: 0.022 µM

C=CCc1cc(OC)c(O)c(OC)c1 [METHOXYEUGENOL]
IC50 [2]: > 50 µM

COc1cc(/C=C/C(=O)NCCc2ccc(O)c(OC)c2)ccc1O
IC50 [2]: > 50 µM

COc1c2c3c(c(OC)c1OC)-c1ccccc1C[C@H]3N(C(C)=O)CC2
IC50 [2]: 14 µM
IC50 [1]: 24.5 µM

COc1cc2ccnc3c2c(c1OC)-c1ccccc1C3=O [LYSICAMINE]
IC50 [2]: 6.4 µM
IC50 [1]: 17.8 µM

COc1cc2oc(=O)ccc2c(OC)c1OC [5,6,7-TRIMETHOXYCOUMARIN]
IC50 [2]: > 50 µM

CCCCC/C=C\C=C\C(=O)NCCc1ccccc1
inhibition [3]: inactive
Activity [4]: Active
Activity [5]: Active
inhibition [6]: Active
inhibition [7]: inactive
inhibition [8]: Active
Activity [9]: Active
inhibition [10]: inactive
Activity [11]: Active
inhibition [12]: inactive
Activity [13]: Active
inhibition [14]: Active
Activity [15]: Active
Activity [16]: Active
inhibition [17]: inactive
inhibition [18]: inactive
inhibition [19]: Active
IC50 [2]: 13.3 µM
IC50 [1]: 21.6 µM
inhibition [20]: Active
inhibition [21]: inactive
Activity [22]: Active
inhibition [23]: Active

COc1cc(C=O)ccc1O [VANILLIN]
IC50 [2]: > 50 µM

C=C1C(=O)O[C@@H]2/C=C(\C)CC/C=C(\C)C[C@@H](O)[C@@H]12 [EUPATOLIDE]
IC50 [2]: 7.3 µM
IC50 [1]: 12.2 µM

COc1cc(C(=O)C2CO[C@H](c3cc(OC)c(O)c(OC)c3)[C@H]2CO)cc(OC)c1O (some centres not stated)
IC50 [2]: > 50 µM

C/C=C/c1cc(OC)c(OC(C)Cc2cc(OC)c(OC)c(OC)c2)c(OC)c1 (racemic)
IC50 [2]: > 50 µM

COc1cc([C@H]2OC[C@H]3[C@@H]2CO[C@@H]3c2cc(OC)c(O)c(OC)c2)cc(OC)c1O [SYRINGARESINOL]
IC50 [2]: > 50 µM

COc1cc(C[C@H]2CO[C@H](c3ccc(O)c(OC)c3)[C@H]2CO)ccc1O [LARICIRESINOL]
IC50 [2]: > 50 µM

O=C1c2ccccc2-c2c3c(cc4ccnc1c24)OCO3 [LIRIODENINE]
IC50 [2]: 10.5 µM

CCCCC/C=C/C=C\C(=O)NCCc1ccccc1
IC50 [2]: > 50 µM

CC(=O)N(C)CCc1ccccc1
IC50 [2]: > 50 µM

COc1c(OC)c2c3c(nccc3c1OC)C(=O)c1ccccc1-2 [HOMOMOSCHATOLINE]
IC50 [2]: > 50 µM
